The test has as its target Mu-type opioid receptor (Rattus norvegicus, UniProt P33535).

One may read the Ki as a measure of affinity in units of concentration, obtained from inhibition or displacement. A low value points to higher affinity.

Chain of Mu-type opioid receptor (P33535 whole entry): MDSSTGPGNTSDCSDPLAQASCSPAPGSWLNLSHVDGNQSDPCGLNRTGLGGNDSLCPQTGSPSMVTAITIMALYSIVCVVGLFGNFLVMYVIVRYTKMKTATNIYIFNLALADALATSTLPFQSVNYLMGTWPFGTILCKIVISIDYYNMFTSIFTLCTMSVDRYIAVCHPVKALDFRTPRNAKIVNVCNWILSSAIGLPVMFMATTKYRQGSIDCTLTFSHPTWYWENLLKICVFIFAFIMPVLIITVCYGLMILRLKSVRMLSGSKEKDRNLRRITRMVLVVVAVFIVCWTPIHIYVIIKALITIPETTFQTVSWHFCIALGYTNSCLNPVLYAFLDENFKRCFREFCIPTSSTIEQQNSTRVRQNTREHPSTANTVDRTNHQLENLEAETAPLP

For the substance “H-YGGFMTSEKSQTPLVTLFKNAIVKNAHKKGQ-OH [Beta-Endorphin]”, the inhibition constant (Ki) amounted to 1.7 nM.

For the origin of these results see BindingDB's records for PubMed 7815359 (University of Pennsylvania, 1995).
